Measurements from ChEMBL document CHEMBL4680090 (J Med Chem, 2016).
Converted amounts (≈) assume the structure as drawn.

Biological target: High affinity nerve growth factor receptor (Homo sapiens, UniProt P04629)
Sequence (P04629 whole entry): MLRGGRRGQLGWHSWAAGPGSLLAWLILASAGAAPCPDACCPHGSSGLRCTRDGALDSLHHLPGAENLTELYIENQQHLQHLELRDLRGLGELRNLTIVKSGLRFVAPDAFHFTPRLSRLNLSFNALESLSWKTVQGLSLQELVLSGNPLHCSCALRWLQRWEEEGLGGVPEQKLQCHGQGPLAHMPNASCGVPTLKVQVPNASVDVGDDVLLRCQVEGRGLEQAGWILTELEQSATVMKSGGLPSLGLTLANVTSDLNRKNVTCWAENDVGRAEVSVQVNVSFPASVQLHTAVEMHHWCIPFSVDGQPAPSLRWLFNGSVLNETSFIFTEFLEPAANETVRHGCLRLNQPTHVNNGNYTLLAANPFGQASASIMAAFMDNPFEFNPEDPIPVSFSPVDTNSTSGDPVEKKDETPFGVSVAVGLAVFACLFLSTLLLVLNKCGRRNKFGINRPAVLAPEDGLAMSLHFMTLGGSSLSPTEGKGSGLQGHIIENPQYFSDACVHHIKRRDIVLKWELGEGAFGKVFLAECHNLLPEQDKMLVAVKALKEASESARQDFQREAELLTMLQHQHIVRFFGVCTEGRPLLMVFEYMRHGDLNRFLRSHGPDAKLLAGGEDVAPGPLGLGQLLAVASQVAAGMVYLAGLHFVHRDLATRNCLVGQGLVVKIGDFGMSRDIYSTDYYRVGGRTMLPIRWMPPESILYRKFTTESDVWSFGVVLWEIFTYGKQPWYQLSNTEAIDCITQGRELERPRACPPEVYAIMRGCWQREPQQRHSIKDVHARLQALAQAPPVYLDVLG
Assay: not given
Conditions: not given
In the case of CC(C)n1cc(C(=O)c2cncc(NC(=O)Cc3ccc(Cl)cc3)c2)c2cncnc21, the IC50 is reported as 12 nM. Work on CC(C)n1cc(C(=O)c2cncc(NC(=O)Cn3ccc(C4CC4)n3)c2)c2cncnc21 yielded an IC50 of 18 nM. In the case of CC(C)n1cc(C(=O)c2cncc(NC(=O)Cc3ccc(Cl)cc3)c2)c2cnc(N)nc21, the IC50 is reported as 6 nM. In the case of CC(C)n1cc(C(=O)c2cncc(NC(=O)Cn3ccc(C4CC4)n3)c2)c2cnc(N)nc21, the IC50 is reported as 8 nM. Compound CC(C)n1cc(C(=O)c2cncc(NC(=O)Cn3ccc(C4CC4)n3)c2)c2cnccc21 has an IC50 of 17 nM. CC(C)n1cc(C(=O)c2cncc(NC(=O)Cn3ccc(C(F)(F)F)n3)c2)c2cnccc21 showed an IC50 of 13 nM.

Test system: not listed separately
Assay: Oral bioavailability in rat at 3 mg/kg
Type: ADME, organism-based
Conditions: in vivo
For CC(C)n1cc(C(=O)c2cncc(NC(=O)Cn3ccc(C(F)(F)F)n3)c2)c2cnccc21, the bioavailability was 16%.

Test system: not listed separately
Assay: Toxicity in rat assessed as drug tolerability at 400 mg/kg/day during 7 day toxicological study
Type: organism-based
Conditions: in vivo, 168 h
In the case of CC(C)n1cc(C(=O)c2cncc(NC(=O)Cn3ccc(C(F)(F)F)n3)c2)c2cnccc21, the Activity is reported as “Non-Toxic”.

Biological target: BDNF/NT-3 growth factors receptor (Homo sapiens, UniProt Q16620)
Sequence (Q16620 whole entry): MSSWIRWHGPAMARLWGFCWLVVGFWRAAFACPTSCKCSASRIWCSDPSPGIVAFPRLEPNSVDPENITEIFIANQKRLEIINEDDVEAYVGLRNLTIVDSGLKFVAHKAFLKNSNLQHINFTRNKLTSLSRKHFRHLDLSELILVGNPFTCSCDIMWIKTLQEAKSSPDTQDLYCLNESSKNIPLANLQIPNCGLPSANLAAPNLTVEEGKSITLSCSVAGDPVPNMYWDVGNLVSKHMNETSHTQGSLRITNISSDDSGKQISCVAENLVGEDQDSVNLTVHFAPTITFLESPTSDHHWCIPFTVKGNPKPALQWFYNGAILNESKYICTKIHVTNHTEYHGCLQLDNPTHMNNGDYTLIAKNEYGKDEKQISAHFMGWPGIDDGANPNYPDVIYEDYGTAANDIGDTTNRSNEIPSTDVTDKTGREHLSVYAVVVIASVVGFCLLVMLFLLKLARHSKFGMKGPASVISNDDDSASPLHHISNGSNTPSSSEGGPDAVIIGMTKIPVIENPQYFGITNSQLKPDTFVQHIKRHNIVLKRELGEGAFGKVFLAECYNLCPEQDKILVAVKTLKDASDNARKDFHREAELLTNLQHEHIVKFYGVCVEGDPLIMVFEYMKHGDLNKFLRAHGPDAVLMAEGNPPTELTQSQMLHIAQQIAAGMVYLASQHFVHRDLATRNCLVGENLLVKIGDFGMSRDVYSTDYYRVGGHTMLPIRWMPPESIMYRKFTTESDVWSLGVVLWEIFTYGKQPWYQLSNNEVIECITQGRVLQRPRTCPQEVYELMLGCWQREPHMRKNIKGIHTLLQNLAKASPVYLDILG
Assay: not given
Conditions: not given
CC(C)n1cc(C(=O)c2cncc(NC(=O)Cc3ccc(Cl)cc3)c2)c2cncnc21 gave an IC50 of 4 nM. For CC(C)n1cc(C(=O)c2cncc(NC(=O)Cn3ccc(C4CC4)n3)c2)c2cncnc21, the IC50 was 4 nM. Work on CC(C)n1cc(C(=O)c2cncc(NC(=O)Cc3ccc(Cl)cc3)c2)c2cnc(N)nc21 yielded an IC50 of 2 nM. CC(C)n1cc(C(=O)c2cncc(NC(=O)Cn3ccc(C4CC4)n3)c2)c2cnc(N)nc21 gave an IC50 of 5 nM. CC(C)n1cc(C(=O)c2cncc(NC(=O)Cn3ccc(C4CC4)n3)c2)c2cnccc21 showed an IC50 of 5 nM. Compound CC(C)n1cc(C(=O)c2cncc(NC(=O)Cn3ccc(C(F)(F)F)n3)c2)c2cnccc21 has an IC50 of 7 nM.

Biological target: T1, Aldehyde oxidase (Homo sapiens, UniProt Q06278)
T1 sequence (Q06278 whole entry): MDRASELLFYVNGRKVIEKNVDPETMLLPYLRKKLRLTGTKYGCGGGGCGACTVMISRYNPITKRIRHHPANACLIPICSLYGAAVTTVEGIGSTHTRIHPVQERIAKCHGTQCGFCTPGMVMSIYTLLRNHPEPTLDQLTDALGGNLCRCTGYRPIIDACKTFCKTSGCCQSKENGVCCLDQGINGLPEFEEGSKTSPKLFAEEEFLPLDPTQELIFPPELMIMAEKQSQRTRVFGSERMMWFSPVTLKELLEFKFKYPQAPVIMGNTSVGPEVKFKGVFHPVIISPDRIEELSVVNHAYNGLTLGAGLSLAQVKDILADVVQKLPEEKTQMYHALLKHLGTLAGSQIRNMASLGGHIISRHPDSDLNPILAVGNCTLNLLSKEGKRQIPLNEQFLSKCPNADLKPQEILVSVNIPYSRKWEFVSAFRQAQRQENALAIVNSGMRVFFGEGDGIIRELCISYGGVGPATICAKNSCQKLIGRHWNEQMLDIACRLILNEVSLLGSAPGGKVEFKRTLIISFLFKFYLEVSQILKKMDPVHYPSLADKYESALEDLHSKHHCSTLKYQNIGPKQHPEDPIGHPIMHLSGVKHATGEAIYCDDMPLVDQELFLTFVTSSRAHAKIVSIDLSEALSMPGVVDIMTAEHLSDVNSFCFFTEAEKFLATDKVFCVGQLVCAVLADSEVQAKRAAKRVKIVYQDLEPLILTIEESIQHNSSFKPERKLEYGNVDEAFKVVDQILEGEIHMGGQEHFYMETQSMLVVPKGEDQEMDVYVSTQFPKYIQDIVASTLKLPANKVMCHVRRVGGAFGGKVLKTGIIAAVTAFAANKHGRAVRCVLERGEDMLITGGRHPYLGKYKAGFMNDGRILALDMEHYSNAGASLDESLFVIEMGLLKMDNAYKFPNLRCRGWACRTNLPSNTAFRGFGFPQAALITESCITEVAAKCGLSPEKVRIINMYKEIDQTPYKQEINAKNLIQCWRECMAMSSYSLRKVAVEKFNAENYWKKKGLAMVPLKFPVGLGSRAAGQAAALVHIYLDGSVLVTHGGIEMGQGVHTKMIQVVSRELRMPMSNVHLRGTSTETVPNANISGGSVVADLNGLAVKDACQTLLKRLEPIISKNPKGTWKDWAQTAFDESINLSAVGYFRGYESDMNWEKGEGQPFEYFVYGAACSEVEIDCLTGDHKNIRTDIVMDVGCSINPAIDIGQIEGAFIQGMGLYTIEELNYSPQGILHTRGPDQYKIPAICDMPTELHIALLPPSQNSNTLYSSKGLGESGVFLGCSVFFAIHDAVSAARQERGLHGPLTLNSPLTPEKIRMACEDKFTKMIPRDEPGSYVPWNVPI
Assay: Drug metabolism in human liver S9 fractions assessed as AO-mediated oxidation on central pyridine substituent at 10 uM incubated for 60 mins in absence of CYP cofactor NADP by HPLC-UV chromatography
Type: ADME, subcellular
Conditions: s9, 1 h
For CC(C)n1cc(C(=O)c2cncc(NC(=O)Cn3ccc(C(F)(F)F)n3)c2)c2cnccc21, the Drug metabolism was “Metabolite_Detected”.

Test system: human BCRP
Assay: in vitro
Conditions: dog
CC(C)n1cc(C(=O)c2cncc(NC(=O)Cn3ccc(C4CC4)n3)c2)c2cncnc21 showed an efflux ratio of 38.

Test system: not listed separately
Assay: in vitro
Conditions: human, liver microsomes
CC(C)n1cc(C(=O)c2cncc(NC(=O)Cc3ccc(Cl)cc3)c2)c2cncnc21 gave a microsomal CLint at 1 h, 1 µM of 22 µL/min/mg. For CC(C)n1cc(C(=O)c2cncc(NC(=O)Cn3ccc(C4CC4)n3)c2)c2cncnc21, the microsomal CLint at 1 h, 1 µM was 25 µL/min/mg. Compound CC(C)n1cc(C(=O)c2cncc(NC(=O)Cc3ccc(Cl)cc3)c2)c2cnc(N)nc21 has a microsomal CLint at 1 h, 1 µM of less than 8 µL/min/mg. Compound CC(C)n1cc(C(=O)c2cncc(NC(=O)Cn3ccc(C4CC4)n3)c2)c2cnc(N)nc21 has a microsomal CLint at 1 h, 1 µM of 8 µL/min/mg. Work on CC(C)n1cc(C(=O)c2cncc(NC(=O)Cn3ccc(C4CC4)n3)c2)c2cnccc21 yielded a microsomal CLint at 1 h, 1 µM of 35 µL/min/mg. CC(C)n1cc(C(=O)c2cncc(NC(=O)Cn3ccc(C(F)(F)F)n3)c2)c2cnccc21 gave a microsomal CLint at 1 h, 1 µM of less than 8 µL/min/mg.

Biological target: T2, Voltage-gated inwardly rectifying potassium channel KCNH2 (Homo sapiens, UniProt Q12809)
T2 sequence (Q12809 whole entry): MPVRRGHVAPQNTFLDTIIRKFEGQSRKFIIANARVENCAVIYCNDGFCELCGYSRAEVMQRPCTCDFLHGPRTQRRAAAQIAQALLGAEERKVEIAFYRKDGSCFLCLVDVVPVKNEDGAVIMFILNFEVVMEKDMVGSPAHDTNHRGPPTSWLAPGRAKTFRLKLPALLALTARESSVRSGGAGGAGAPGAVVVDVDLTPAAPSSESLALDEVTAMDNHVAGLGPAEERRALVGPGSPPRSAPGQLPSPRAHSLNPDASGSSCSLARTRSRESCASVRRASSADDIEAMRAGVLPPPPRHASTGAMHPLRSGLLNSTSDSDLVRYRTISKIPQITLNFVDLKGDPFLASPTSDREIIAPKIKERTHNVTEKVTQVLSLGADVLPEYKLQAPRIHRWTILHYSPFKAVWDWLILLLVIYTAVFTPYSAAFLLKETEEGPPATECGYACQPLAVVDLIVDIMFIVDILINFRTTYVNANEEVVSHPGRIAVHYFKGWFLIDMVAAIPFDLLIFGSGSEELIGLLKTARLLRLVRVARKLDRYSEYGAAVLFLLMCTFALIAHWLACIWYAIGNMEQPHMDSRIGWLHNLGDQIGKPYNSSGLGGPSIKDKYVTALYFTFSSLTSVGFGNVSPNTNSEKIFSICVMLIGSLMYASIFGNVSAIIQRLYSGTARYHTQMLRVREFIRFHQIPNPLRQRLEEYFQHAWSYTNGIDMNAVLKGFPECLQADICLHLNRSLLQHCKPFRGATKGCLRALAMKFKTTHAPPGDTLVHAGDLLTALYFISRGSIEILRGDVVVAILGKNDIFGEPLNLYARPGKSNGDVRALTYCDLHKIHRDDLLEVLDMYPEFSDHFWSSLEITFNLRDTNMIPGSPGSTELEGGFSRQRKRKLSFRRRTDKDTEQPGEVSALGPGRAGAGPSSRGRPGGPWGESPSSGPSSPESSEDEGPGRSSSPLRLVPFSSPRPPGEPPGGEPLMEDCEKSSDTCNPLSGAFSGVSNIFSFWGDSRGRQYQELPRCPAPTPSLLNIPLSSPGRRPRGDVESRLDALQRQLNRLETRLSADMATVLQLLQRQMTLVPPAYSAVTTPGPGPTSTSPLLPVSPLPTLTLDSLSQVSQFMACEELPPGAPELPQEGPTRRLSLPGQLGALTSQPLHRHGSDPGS
Assay: not given
Conditions: not given
With CC(C)n1cc(C(=O)c2cncc(NC(=O)Cc3ccc(Cl)cc3)c2)c2cncnc21 the Ki was 5200 nM. Work on CC(C)n1cc(C(=O)c2cncc(NC(=O)Cn3ccc(C4CC4)n3)c2)c2cncnc21 yielded a Ki of 11900 nM. In the case of CC(C)n1cc(C(=O)c2cncc(NC(=O)Cc3ccc(Cl)cc3)c2)c2cnc(N)nc21, the Ki is reported as 16900 nM. Compound CC(C)n1cc(C(=O)c2cncc(NC(=O)Cn3ccc(C4CC4)n3)c2)c2cnc(N)nc21 has a Ki of 38900 nM. For CC(C)n1cc(C(=O)c2cncc(NC(=O)Cn3ccc(C4CC4)n3)c2)c2cnccc21, the Ki was 1400 nM. For CC(C)n1cc(C(=O)c2cncc(NC(=O)Cn3ccc(C(F)(F)F)n3)c2)c2cnccc21, the Ki was 1400 nM.

Biological target: T1, Aldehyde oxidase
Assay: Drug metabolism in human liver S9 fractions assessed as AO-mediated oxidation on pyrrolopyrimidine-hinge binding group at 10 uM incubated for 60 mins in absence of CYP cofactor NADP by HPLC-UV chromatography
Type: ADME, subcellular
Conditions: s9, 1 h
In the case of CC(C)n1cc(C(=O)c2cncc(NC(=O)Cn3ccc(C(F)(F)F)n3)c2)c2cnccc21, the Drug metabolism is reported as “Metabolite_Notdetected”.

Test system: not listed separately
Assay: Volume of distribution in rat at 1 mg/kg, iv
Type: ADME, organism-based
Conditions: in vivo, read-out: Vdss
In the case of CC(C)n1cc(C(=O)c2cncc(NC(=O)Cn3ccc(C(F)(F)F)n3)c2)c2cnccc21, the Vd is reported as 1.5 L/kg.

Test system: not listed separately
Assay: Clearance in rat at 1 mg/kg, iv
Type: ADME, organism-based
Conditions: in vivo
In the case of CC(C)n1cc(C(=O)c2cncc(NC(=O)Cn3ccc(C(F)(F)F)n3)c2)c2cnccc21, the clearance is reported as 50 mL/min/kg.

Test system: human BCRP
Assay: in vitro
Conditions: dog
Remark: another data set of the same source
In the case of CC(C)n1cc(C(=O)c2cncc(NC(=O)Cc3ccc(Cl)cc3)c2)c2cncnc21, the Papp A→B is reported as 9.9 ×10⁻⁶ cm/s. Compound CC(C)n1cc(C(=O)c2cncc(NC(=O)Cn3ccc(C4CC4)n3)c2)c2cncnc21 has a Papp A→B of 18.4 ×10⁻⁶ cm/s. For CC(C)n1cc(C(=O)c2cncc(NC(=O)Cc3ccc(Cl)cc3)c2)c2cnc(N)nc21, the Papp A→B was 5.2 ×10⁻⁶ cm/s. CC(C)n1cc(C(=O)c2cncc(NC(=O)Cn3ccc(C4CC4)n3)c2)c2cnc(N)nc21 showed a Papp A→B of 15.8 ×10⁻⁶ cm/s. Compound CC(C)n1cc(C(=O)c2cncc(NC(=O)Cn3ccc(C4CC4)n3)c2)c2cnccc21 has a Papp A→B of 19.8 ×10⁻⁶ cm/s. With CC(C)n1cc(C(=O)c2cncc(NC(=O)Cn3ccc(C(F)(F)F)n3)c2)c2cnccc21 the Papp A→B was 11.3 ×10⁻⁶ cm/s.

Test system: not listed separately
Assay: Clearance in rat at 1 mg/kg, iv relative to hepatic blood flow
Type: ADME, organism-based
Conditions: in vivo
Compound CC(C)n1cc(C(=O)c2cncc(NC(=O)Cn3ccc(C(F)(F)F)n3)c2)c2cnccc21 has a CL of 70%.

Biological target: T2, Voltage-gated inwardly rectifying potassium channel KCNH2
Assay: not given
Conditions: not given
Remark: another data set of the same source
For CC(C)n1cc(C(=O)c2cncc(NC(=O)Cn3ccc(C(F)(F)F)n3)c2)c2cnccc21, the IC50 was 1600 nM.

Test system: not listed separately
Assay: physchem
Conditions: buffer, pH 6.5
CC(C)n1cc(C(=O)c2cncc(NC(=O)Cc3ccc(Cl)cc3)c2)c2cncnc21 showed a solubility of 17.5 µM (≈ 7.59 µg/mL). CC(C)n1cc(C(=O)c2cncc(NC(=O)Cc3ccc(Cl)cc3)c2)c2cnc(N)nc21 showed a solubility of 12 µM (≈ 5.39 µg/mL). In the case of CC(C)n1cc(C(=O)c2cncc(NC(=O)Cn3ccc(C4CC4)n3)c2)c2cnc(N)nc21, the solubility is reported as 30 µM (≈ 13.3 µg/mL). Compound CC(C)n1cc(C(=O)c2cncc(NC(=O)Cn3ccc(C(F)(F)F)n3)c2)c2cnccc21 has a solubility of 7.5 µM (≈ 3.42 µg/mL).

Test system: not given
Assay: not given
Conditions: human, hepatocytes, 4 h, 1 µM
In the case of CC(C)n1cc(C(=O)c2cncc(NC(=O)Cc3ccc(Cl)cc3)c2)c2cncnc21, the “CLH(app)” value is reported as 37 µL/min. In the case of CC(C)n1cc(C(=O)c2cncc(NC(=O)Cn3ccc(C4CC4)n3)c2)c2cncnc21, the “CLH(app)” value is reported as 12 µL/min. In the case of CC(C)n1cc(C(=O)c2cncc(NC(=O)Cc3ccc(Cl)cc3)c2)c2cnc(N)nc21, the “CLH(app)” value is reported as 14 µL/min. For CC(C)n1cc(C(=O)c2cncc(NC(=O)Cn3ccc(C4CC4)n3)c2)c2cnc(N)nc21, the “CLH(app)” value was 24 µL/min. With CC(C)n1cc(C(=O)c2cncc(NC(=O)Cn3ccc(C4CC4)n3)c2)c2cnccc21 the “CLH(app)” value was 23 µL/min. In the case of CC(C)n1cc(C(=O)c2cncc(NC(=O)Cn3ccc(C(F)(F)F)n3)c2)c2cnccc21, the “CLH(app)” value is reported as 12 µL/min.

Test system: not listed separately
Assay: Half life in rat at 1 mg/kg, iv
Type: ADME, organism-based
Conditions: in vivo
Compound CC(C)n1cc(C(=O)c2cncc(NC(=O)Cn3ccc(C(F)(F)F)n3)c2)c2cnccc21 has a half-life of 2.3 h.

Test system: not listed separately
Assay: in vivo
Conditions: rat, brain and plasma, po, 100 mg/kg
For CC(C)n1cc(C(=O)c2cncc(NC(=O)Cn3ccc(C(F)(F)F)n3)c2)c2cnccc21, the Kp uu at 3 h was 0.0083.

Test system: not listed separately
Assay: physchem
Conditions: octanol/water, pH 7.4
CC(C)n1cc(C(=O)c2cncc(NC(=O)Cc3ccc(Cl)cc3)c2)c2cncnc21 showed a logD of 3.7. CC(C)n1cc(C(=O)c2cncc(NC(=O)Cn3ccc(C4CC4)n3)c2)c2cncnc21 gave a logD of 2.5. With CC(C)n1cc(C(=O)c2cncc(NC(=O)Cc3ccc(Cl)cc3)c2)c2cnc(N)nc21 the logD was 4.2. Compound CC(C)n1cc(C(=O)c2cncc(NC(=O)Cn3ccc(C4CC4)n3)c2)c2cnc(N)nc21 has a logD of 2.5. With CC(C)n1cc(C(=O)c2cncc(NC(=O)Cn3ccc(C4CC4)n3)c2)c2cnccc21 the logD was 2.7. CC(C)n1cc(C(=O)c2cncc(NC(=O)Cn3ccc(C(F)(F)F)n3)c2)c2cnccc21 gave a logD of 3.

Biological target: T1, Aldehyde oxidase
Assay: Drug metabolism in human liver S9 fractions assessed as AO-mediated oxidation at 2-aminopyrimidyl ring at 10 uM incubated for 60 mins in absence of CYP cofactor NADP by HPLC-UV chromatography
Type: ADME, subcellular
Conditions: s9, 1 h
In the case of CC(C)n1cc(C(=O)c2cncc(NC(=O)Cc3ccc(Cl)cc3)c2)c2cnc(N)nc21, the Drug metabolism is reported as “Metabolite_Notdetected”. With CC(C)n1cc(C(=O)c2cncc(NC(=O)Cn3ccc(C4CC4)n3)c2)c2cnc(N)nc21 the Drug metabolism was “Metabolite_Notdetected”.

Test system: MDR1 (P-gp)
Assay: in vitro
Conditions: dog, MDCK-MDR1
With CC(C)n1cc(C(=O)c2cncc(NC(=O)Cn3ccc(C4CC4)n3)c2)c2cncnc21 the efflux ratio was 5.8. CC(C)n1cc(C(=O)c2cncc(NC(=O)Cn3ccc(C4CC4)n3)c2)c2cnccc21 showed an efflux ratio of 12.5.
